Consider seven compounds from PMC6017400, “Investigation into Improving the Aqueous Solubility of the Thieno[2,3-b]pyridine Anti-Proliferative Agents” (Molecules : A Journal of Synthetic Chemistry and Natural …, 2018).

Molecules are shown by their SMILES. Converted amounts (≈) assume the structure as drawn. “And” between values parts separate entries of the source, which are not always exact repeats. Equal values may be shown once. Read-outs that look alike come from different tables or passages of the source.

The nature of data set [1]: Aqueous thermodynamic solubility by HPLC. Type of data set: physicochemical. To be noted: for solubility thermodynamic at 15 min / solubility at 15 min: thermodynamic from solid; for solubility thermodynamic at 15 min / Experimental S / solubility at 15 min: water; for solubility thermodynamic at 15 min: read-out: Experimental S. Here is the method: The aqueous thermodynamic solubility of derivatives 1–7 were measured using a standard HPLC (High Performance Liquid Chromatography) procedure. Solubility is defined as the amount of substance that passes into solution in order to establish the equilibrium at constant temperature and pressure and, thus, produce a saturated solution. The water solubility (log S) and log P were calculated for comparison.
Intrinsic aqueous drug solubility was determined by forming a supersaturated solution of the drug compound in water. The suspension was sonicated for 15 min and centrifuged at 13,000 rpm for 6 min. After 15 min the supernatant was decanted and the total drug content solubilised was analysed using reverse phase HPLC. The solution was analysed using an Agilent 1260 Infinity/DAD (100–900 nm) (Waldbronn, Germany) with a Zorbax eclipse XDB ([…], 4.6 mm × 150 mm) (Waldbronn, Germany) column. The mobile phase comprised of 80:20 acetonitrile: H2O containing 45 mM ammonium formate buffered to pH 3.5 with formic acid. Flow rate was 1 mL/min with 5 μL injection volume.

A short description of data set [2]: Drug loading into Ch5 polymer (UV-VIS). Type of data set: physicochemical. The conditions noted are these: 6 mg/mL, 10:1 feed ratio. How it is done:
The maximum compound solubilisation observed was 6 mg/mL at a 10:1 ratio, with 0.59 mg/mL drug encapsulation being achieved.
Polymer solutions of 1 mg/mL, 3 mg/mL, and 6 mg/mL were made up in deionised water and probe sonicated for 10 min to ensure aggregation of the self-assemblies was achieved. Compound 2 was added in 1:1, 5:1, and 10:1 initial drug: excipient weight ratios and the drug-polymer solutions were probe sonicated for a further 10 min to ensure maximum encapsulation was achieved. After cooling to room temperature, the solutions were filtered using 0.45 µm syringe filters (with prefilters) to ensure any excess un-encapsulated drugs were removed. Drug quantification was carried out using UV-VIS spectroscopy with the samples diluted in DMSO. Absorbance was measured at 304 nm. Calibration was run from 0.0039–0.0313 mg/mL with R^2 = 0.992 (see Supplementary Materials Figure S3 for the calibration plot).

Data set [3] in a line: In vitro drug release from polymer into PBS. Type of data set: physicochemical. The conditions noted are these: 37 °C. How it is done: The formulation (1 mL) was pipetted inside dialysis tubing (MW cut off = 12–14 kDa) and dialysed against PBS in sink (100 mL, 0.2 M) at 37 °C with stirring. At various time points 1 mL of the external PBS was extracted and replaced with 1 mL of fresh PBS. The presence of drug in the collected PBS was determined using UV-VIS spectroscopy as before.

Data set [4] deals with human pancreatic adenocarcinoma (BxPC-3) cells. The data set is described as follows: MTT cytotoxicity assay. Type of data set: cell-based. How it is done: Finally the viability was measured with the MTT assay in human pancreatic adenocarcinoma (BxPC-3) cells using 2 with and without the polymer encapsulation; the results are shown in Figure 6.
An MTT assay was carried out using human pancreatic adenocarcinoma (BxPC-3) cells. Cells were cultured in RPMI medium containing 10% FBS and 1% penicillin streptomycin (Penstrep). […] The experiments were performed in triplicate (n = 3) using eight wells per plate for each data point. […] Polymeric self-assemblies were formed by probe sonicating the polymers in sterile water (5 mg/mL). The polymer stock solutions were diluted to 0.005 mg/mL with media. A drug stock solution (20 mg/mL) was prepared by diluting compound 2 in DMSO. The formulations were prepared by addition of compound 2 into 0.005 mg/mL polymer solution.

Data set [5] deals with MDA-MB-231 (breast) human tumour cell line. On the set-up: method as in PMID 26966420. To be noted: read-out: IC50, thymidine uptake assay; cited from earlier work.
For the next data set, the system named is MDA-MB-231. On the set-up: method as in PMID 22698703, doi:10.1039/c3md00320e, PMID 26966420. The conditions noted are these: cited from earlier work.
A further data set has as its system HCT116. On the set-up: method as in PMID 22698703, doi:10.1039/c3md00320e, PMID 26966420. The conditions noted are these: cited from earlier work.
In data set [6] the test system is HCT116 (colon) human tumour cell line. Kind of data set: Thymidine uptake cell proliferation assay. The conditions noted are these: 1 μM, untreated cells = 100% growth. Type of data set: cell-based. How it is done:
(§1) Thymidine uptake was used for viability testing on the MDA-MB-231 (breast) and HCT116 (colon) human tumour cell lines. This measurement reflects the anti-proliferative/cytotoxic effects of the compounds. A concentration of 1 μM was used. […] To corroborate these findings, derivatives 3, 4, and 6 were tested against the National Cancer Institute’s human tumour cell line panel (NCI60). […] The leukaemia cell lines K-562 (45.5% growth) and SR (47.7% growth) were the most affected followed by the melanoma MDA-MB-435 (53.9% growth) cell line. This is an interesting observation since the thieno[2,3-b]pyridines are often active against leukaemia cells and the MDA-MB-435 cell line, in particular.
(§2) As described in detail previously cell proliferation was measured using a thymidine incorporation assay by seeding 3000 cells in each well using 96-well plates with varying concentrations of inhibitors for three days. Experiments were performed in triplicate with a minimum of two experimental repeats. Briefly, 0.04 µCi of ^3H-thymidine was added to each well and incubated for five hours, after which the cells were gathered onto glass fibre filters using an automated TomTec harvester. Filters were incubated with Betaplate Scint and thymidine incorporation determined with Trilux/Betaplate counter showing the percentage of cells incorporated with ^3H-thymidine into the DNA helix.

In data set [7] the test system is MDA-MB-231 (breast) human tumour cell line. Kind of data set: Thymidine uptake cell proliferation assay. Type of data set: cell-based. The conditions noted are these: 1 μM, untreated cells = 100% growth. Here is the method: as §1, §2
Data set [8] has as its system NCI60 human tumour cell line panel. The data set is described as follows: NCI60 human tumour cell line panel growth inhibition (SRB). Type of data set: cell-based. Here is the method: as §1
(§3) Furthermore, derivatives 3, 4, and 6 were sent to the National Cancer Institute’s Developmental Therapeutic Program (DTP) where they were screened against a panel of sixty human tumour cell lines (NCI60, for further information see [18, 29, 30] and a complete description in the Supplementary Materials section).
(§4) Figure S3. Compound 2 UV-vis calibration in DMSO at 304 nm.
(§5) NCI's 60-cell line panel growth inhibition assay
The NCI's human 60-cell lines were grown in RPMI 1640 medium containing 5% FBS and 2mM L-glutamine. Cells were inoculated into 96-well plates at plating densities 5000–40 000 cells per well, based on the doubling time of individual cell lines. Plates were then incubated at 37 °C, 5% CO2, 95% air and 100% relative humidity for 24 h prior to addition of tested compounds. After 24 h, two plates of each cell line were fixed in situ with trichloroacetic acid (TCA), to represent a measurement of the cell population for each cell line at the time of tested compound addition. Tested compounds were solubilized in DMSO at a concentration 400 times that of the desired final maximum test concentration and stored frozen prior to use. An aliquot of each frozen tested concentrate was thawed and diluted to twice the desired final maximum test concentration with complete medium containing 50 μg mL-1 gentamicin. 100 μL aliquot of the tested drug diluted solution was added to appropriate wells containing 100 μL of medium, resulting in the required final drug doses. Following tested compound addition, plates were incubated for additional 48 h. The assay was terminated by the addition of cold TCA for adherent cells. Cells were fixed in situ by addition of 50 μL of cold 50% (w/v) TCA (final concentration, 10% TCA) and incubated for 60 min at 4 °C. The supernatant was discarded, and plates were washed 5 times with water and air dried. Sulforhodamine B (SRB) solution (100 μL), 0.4%(w/v) in 1% acetic acid was added to each well, and plates were incubated for 10 min at rt. […] The bound stain was subsequently solubilized with 10 mM Trizma base, and the absorbance was measured on a plate reader at 515 nm. […]

The test system of data set [9] is leukaemia cell line K-562. The data set is described as follows: NCI60 panel growth inhibition (SRB). Type of data set: cell-based, human. The conditions noted are these: K-562, NCI60. Here is the method:
as §1, §3, §4, §5
(§6) The NCI's human 60-cell lines were grown in RPMI 1640 medium containing 5% FBS and 2mM L-glutamine. Cells were inoculated into 96-well plates at plating densities 5000–40 000 cells per well, based on the doubling time of individual cell lines. Plates were then incubated at 37 °C, 5% CO2, 95% air and 100% relative humidity for 24 h prior to addition of tested compounds. After 24 h, two plates of each cell line were fixed in situ with trichloroacetic acid (TCA), to represent a measurement of the cell population for each cell line at the time of tested compound addition. Tested compounds were solubilized in DMSO at a concentration 400 times that of the desired final maximum test concentration and stored frozen prior to use. […] The bound stain was subsequently solubilized with 10 mM Trizma base, and the absorbance was measured on a plate reader at 515 nm. […]

The subject of another data set is leukaemia cell line SR. The data set is described as follows: NCI60 panel growth inhibition (SRB). Type of data set: cell-based, human. Here is the method: as §1, §3, §4, §5, §6
Data set [10] relates to melanoma MDA-MB-435 cell line. Kind of data set: NCI60 panel growth inhibition (SRB). Type of data set: cell-based, human. The conditions noted are these: MDA-MB-435, NCI60. How it is done:
as §1, §3, §4, §5, §6

Setting [11] is: HPLC, read-out: Experimental S, log S (converted).

On to `Nc1c(C(=O)Nc2ccccc2)sc2nc3c(cc12)C(=O)CCC3` [Compound 1, 3-amino-5-oxo-N-phenyl-5,6,7,8-tetrahydrothieno[2,3-b]quinoline-2-carboxamide], for which, in data set [1] (HPLC), the solubility thermodynamic at 15 min was 1.21 µg/mL (≈ 3.59 µM) and the “Experimental S” value was found to be 1.2 µg/mL. For the same compound, in data set [1] (setting [11]), the solubility at 15 min was 3.98 µM.

Consider `Cc1c(Cl)cccc1NC(=O)c1sc2nc3c(cc2c1N)C(=O)CCC3` [Compound 2], for which the solubility thermodynamic at 15 min in data set [1] (HPLC) is 3.53 µg/mL (≈ 9.15 µM). In addition, the solubility at 15 min in data set [1] (setting [11]) is 10 µM. The “drug encapsulation (maximum) in Ch5 polymer” value in [2] amounted to 0.59 mg/mL. Besides, in [3], the “time to plateau of release from the polymer ensemble into the aqueous phase” value is ~ 40 min. The IC50 is 2.5 µg/mL and 6.48 µM in data set [4] (BXPC-3, 24 h exposure, read-out: IC50, BxPC-3 viability (MTT)); 164 nM in [5]. Further, the viability at 12.95 µM in data set [4] (BxPC-3, 5 μg/mL (12.95 μM), read-out: cell viability (activity remaining)) is ~30%. Moreover, the GI50 is 141 nM in the data set on MDA-MB-231 and 67 nM with HCT116.

For `Nc1c(C(=O)Nc2ccccc2)n(CCCN2CCOCC2)c2nc3c(cc12)CCCC3` [Compound 3], in [1], the “solubility increase as compared to 1” value is listed as “three orders of a magnitude”. Also, the water solubility in [1] amounted to 1300 µg/mL (≈ 3000 µM). In addition, the “Experimental S” value in data set [1] (HPLC) was 1339.8 µg/mL and 1336.7 µg/mL. The solubility at 15 min in [1] (setting [11]) was 3160 µM; in data set [1] (read-out: water solubility) it was ~1300 µg/mL. Besides, the “average relative growth, thymidine assay” value in data set [6] stood at 90.3%; in data set [7] it was 99.5%. In addition, the “activity against NCI60 panel” value in [8] is “very modest or no activity”.

Take `Nc1c(C(=O)Nc2ccccc2)n(CCCc2ccccc2)c2nc3c(cc12)CCCC3` [Compound 4]: in [1] (HPLC), the solubility thermodynamic at 15 min stood at 0.2 µg/mL (≈ 0.471 µM). Also, in data set [1] (setting [11]), the solubility at 15 min is 0.501 µM. The “average relative growth, thymidine assay” value was found to be 103.6% in [6] and 105.4% in [7]. In addition, in data set [8], the “activity against NCI60 panel” value is given as “very modest or no activity”.

Consider `Cn1c(C(=O)Nc2cccc3ccccc23)c(N)c2cc3c(nc21)CCCC3` [Compound 5], for which the solubility thermodynamic at 15 min in data set [1] (HPLC) was found to be 0.18 µg/mL (≈ 0.486 µM). Also, the solubility at 15 min in data set [1] (setting [11]) was 0.501 µM. For the same compound, the entries for the “average relative growth, thymidine assay” value in data set [6] and in data set [7] were 102.1% and 97.2%, respectively.

Consider `Cc1cccc(NC(=O)c2c(N)c3cc4c(nc3n2C)CCCC4)c1C` [Compound 6], for which, in [1] (HPLC), the solubility thermodynamic at 15 min stood at 0.76 µg/mL (≈ 2.18 µM). In addition, the solubility at 15 min in data set [1] (setting [11]) was 2 µM. Also, the “average relative growth, thymidine assay” value is 104.2% in data set [6] and 106.0% in data set [7]. In addition, the “activity against NCI60 panel” value in data set [8] is recorded as “very modest or no activity”. In data set [8] (untreated cells = 100% growth), the “overall relative growth for the 60 cell lines” value turned out to be 77%. In addition, the figures for the growth (in data set [9]; in the data set on leukaemia cell line SR; in data set [10]) were 45.5%, 47.7% and 53.9%, respectively.

Take `Cn1c(C(=O)Nc2ccccc2)c(N)c2cc3c(nc21)CCCCCC3` [Compound 7]: the solubility thermodynamic at 15 min in data set [1] (HPLC) is 0.61 µg/mL (≈ 1.75 µM). For the same compound, the solubility at 15 min in data set [1] (setting [11]) is 1.58 µM. In addition, the “average relative growth, thymidine assay” value in data set [6] was found to be 99.0%; in [7], 100.7%.
